In patent US20260274838A1 (PURDUE RESEARCH FOUNDATION, priority 2023, published 2026):
Entries after “also recorded” stand apart in the source; their conditions may differ.

What was measured:
hSTING = target: T1, hSTING (Homo sapiens, UniProt Q86WV6); test: STING based fluorescence polarization assay (F-c-di-GMP probe displacement); format: binding; conditions: 20 μM compound, 50 nM probe, 10 μM STING, 5 minutes; compared to HSD1077
T1 construct: SUMO; made in house; host or cells: E. coli Rosetta 2 (pLysS)
T1 sequence (Q86WV6 whole entry H232R): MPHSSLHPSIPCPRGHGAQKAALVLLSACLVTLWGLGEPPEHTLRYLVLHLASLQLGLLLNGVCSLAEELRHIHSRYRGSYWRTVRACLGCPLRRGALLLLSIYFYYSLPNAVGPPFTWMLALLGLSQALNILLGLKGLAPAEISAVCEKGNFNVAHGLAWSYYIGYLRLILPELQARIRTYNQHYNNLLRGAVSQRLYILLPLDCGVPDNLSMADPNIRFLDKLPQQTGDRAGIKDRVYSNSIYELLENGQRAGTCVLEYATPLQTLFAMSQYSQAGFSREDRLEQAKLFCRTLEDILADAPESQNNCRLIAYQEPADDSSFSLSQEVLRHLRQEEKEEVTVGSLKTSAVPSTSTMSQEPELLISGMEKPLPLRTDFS
Description: As a preliminary screen, 20 μM of compounds and 50 nM of the probe were incubated with 10 μM of STING for 5 minutes prior to evaluation of fluorescence anisotropy.
50 nM of 2′-Fluo-AHC-c-diGMP (Biolog) was incubated with 10 μM hSTING and 20 μM of screening compounds in dimethyl sulfoxide (DMSO) for 5 minutes in 1× Phosphate buffered saline at room temperature. […] Anisotropy was normalized via equating measurements with 0 μM hSTING to zero. […] Anisotropy was converted to a fraction bound by F-c-di-GMP using the following equation: […]
wherein r refers to the anisotropy value at 10 μM hSTING concentration upon compound addition, rfree refers to the anisotropy value of unbound fluorophore, and Q refers to the ratio of fluorescence intensities between bound and free fluorophore.

RAW ISG Blue cells = test: Detection of IRF activation in RAW ISG Blue reporter cells (SEAP, QUANTI-Blue); format: cell-based, murine
Excerpt: To understand possible modulatory effects of compound HSD1077 on the cGAS-STING axis, the quantification of type 1 interferon expression in-cellulo upon compound HSD1077 treatment, investigated via a commercially available murine macrophage cell line RAW ISG Blue, which express secreted embryonic alkaline phosphatase (SEAP) under the control of an interferon-stimulated gene 54 (ISG54), inducible promoter. Upon the stimulation of pathways, such as cGAS-STING, which activate type 1 interferon production, SEAP would be expressed and can be quantified using a chromogenic detection substrate Quantiblue™. […] Excitedly, concentrations as low as 20 nM caused a noticeable decrease in interferon expression (FIG. 8).
After which, media from each respective well was collected for estimation of IRF activation via SEAP colorimetric assay via QUANTI-blue reagent (Invivogen) as per manufacturer protocols, using a clear 96 well flat bottom plate. 20 μL of the media obtained in each individual well was incubated with 180 μL of QUANTI-Blue™ Solution for 6 hours at 37° C. Absorbance (630 nm) of each well was quantified via Biotek Cytation 5 multi-mode reader.

RAW ISG Blue macrophages = test: Interferon-β mRNA levels in RAW cells via qPCR; format: cell-based, murine; conditions: pre-treatment 6 hours, then 100 μM cGAMP 3 hours; vs DMSO-treated cells stimulated with cGAMP
Description: FIG. 8B illustrates RAW ISG cells were pre-treated with either compound HSD1077 or compound H-151 as a positive control for 6 hours and subsequently stimulated with 100 μM of cGAMP for 3 hours for induction of Interferon-β. mRNA levels were quantified by RT-PCR. Gene expression was normalized with β-actin. Experiments were performed in two biological replicates. Error bars indicate the error of the mean of two independent experiments.
As a secondary analysis, mRNA levels of murine Interferon-β were also quantified via quantitative PCR (qPCR), upon cGAMP stimulation on RAW macrophages with or without compound HSD1077 pre-treatment.
1×10^6 cells were seeded in 6 well plates and incubated for 24 hours to allow for adherence. […] Cells were subsequently harvested, and RNA extraction was performed via the use of TRIzol reagent (Thermo-fisher). 1 μg of RNA harvested from each sample was used for cDNA synthesis using random hexamers, dNTPs, and superscript II reverse transcriptase (Thermo-fisher). […] The forward and reverse primers for the relative quantification of Interferon-β and β-actin were used as reported in Wiser C, Science Reports, 2020, 10, 1-11 and Wang M, ACS Chemical Biology, 2021, 16, 1663-1670, which are hereby specifically incorporated by reference for its teachings regarding the same.

Raw ISG cells = test: Western blotting of p-STING and p-IRF3 in Raw ISG cells; format: cell-based, murine; conditions: 5 μM for 4 hours, then 100 μM cGAMP 3 hours; vs DMSO+cGAMP
THP-1 dual cells = test: Detection of IRF activation in THP-1 dual reporter cells (Lucia luciferase, QUANTI-Luc), cGAMP stimulation; conditions: then 2'-3' cGAMP 24 hours
Description: Using THP-1 dual cell lines (Invivogen) featuring a luciferase gene under the control of an ISG54 inducible promoter, relative quantifications of type 1 interferon expression could be achieved through luciferase detection upon cGAS-STING pathway induction.
1×10^5 cells were seeded in 96 well plates and incubated for 24 hours. After which, cells were pre-treated with the drug compound for 1 hour, followed by 100 μM of 2′-3′ cGAMP for induction of the cGAS-STING pathway, and incubated for 24 hours. After which, cell suspension from each respective well was collected and for relative quantification of IRF activation via Lucia luciferase based luminescent assay via QUANTI-Luc™ reagent (Invivogen). 10 μL of the cell suspension obtained in each individual well was added to 50 μL of QUANTI-Luc™ Solution. […] Experiments were performed in biological triplicates, with data reported as the mean and standard deviation of 3 data points.

| Compound | STING binding (fraction of F-c-di-GMP probe bound, Fbound), in words (hSTING) | also measured |
| --- | --- | --- |
| 7-(1H-pyrazol-4-yl)-8,9,10,11-tetrahydro-3H-imidazo[4,5-a]phenanthridine [Compound 17] | not well tolerated | – |
| COc1cc2nc(-c3cn[nH]c3)c3c(c2cc1OC)CCCC3 [Compound 2, 2,3-Dimethoxy-6-(1H-pyrazol-4-yl)-7,8,9,10-tetrahydrophenanthridine] | significant decrease in STING binding | – |
| c1n[nH]cc1-c1nc2ccc3c(c2c2c1CCCC2)OCO3 [Compound 3, 7-(1H-pyrazol-4-yl)-8,9,10,11-tetrahydro-[1,3]dioxolo[4,5-a]phenanthridine] | significant decrease in STING binding | – |
| Cn1ncc2c3c4c(c(-c5cn[nH]c5)nc3ccc21)CCCC4 [Compound 7, 3-Methyl-7-(1H-pyrazol-4-yl)-8,9,10,11-tetrahydro-3H-pyrazolo[4,3-a]phenanthridine] | poor STING binder | – |
| CCc1cc(-c2cn[nH]c2)nc2ccc3[nH]ncc3c12 [Compound 9, 9-Ethyl-7-(1H-pyrazol-4-yl)-3H-pyrazolo[4,3-f]quinoline] | reduced STING binding | – |
| c1n[nH]cc1-c1nc2ccc3[nH]ncc3c2c2c1CCC2 [Compound 10] | reduced STING binding | – |
| O=C1c2ccccc2C(=O)N1C1CCc2c(c(-c3cn[nH]c3)nc3ccc4[nH]ncc4c23)C1 (stereo not drawn) [Compound 16, 2-(7-(1H-pyrazol-4-yl)-8,9,10,11-tetrahydro-3H-pyrazolo[4,3-a]phenanthridin-9-yl)isoindoline-1,3-dione] | not well tolerated | – |
| c1cc(-c2nc3ccc4[nH]ncc4c3c3c2CCCC3)n[nH]1 [Compound 19, 7-(1H-pyrazol-3-yl)-8,9,10,11-tetrahydro-3H-pyrazolo[4,3-a]phenanthridine] | significant decrease in STING binding | – |
| Cn1cc(-c2nc3ccc4[nH]ncc4c3c3c2CCCC3)cn1 [Compound 20, 7-(1-Methyl-1H-pyrazol-4-yl)-8,9,10,11-tetrahydro-3H-pyrazolo[4,3-a]phenanthridine] | reduced binding capabilities | – |
| CN1CCN(C(=O)c2ccc(-c3nc4ccc5[nH]ncc5c4c4c3CCCC4)cc2)CC1 [Compound 21, (4-methylpiperazin-1-yl) (4-(8,9,10,11-tetrahydro-3H-pyrazolo[4,3-a]phenanthridin-7-yl)phenyl)methanone] | reduced binding capabilities | – |
| CC(=O)N1CCN(C(=O)c2ccc(-c3nc4ccc5[nH]ncc5c4c4c3CCCC4)cc2)CC1 [Compound 22, 1-(4-(4-(8,9,10,11-tetrahydro-3H-pyrazolo[4,3-a]phenanthridin-7-yl)benzoyl)piperazin-1-yl)ethan-1-one] | reduced binding capabilities | – |
| CN1CCN(C(=O)c2ccc(-c3nc4ccc5[nH]ncc5c4c4c3CCCCC4)cc2)CC1 [Compound 23] | negatively impacted STING binding | – |
| CN1CCN(C(=O)c2ccc(-c3nc4ccc5[nH]ncc5c4c4c3CCC4)cc2)CC1 [Compound 24, (4-methylpiperazin-1-yl) (4-(3,8,9,10-tetrahydrocyclopenta[c]pyrazolo[4,3-f]quinolin-7-yl)phenyl)methanone] | negatively impacted STING binding | – |
| CN1CCN(C(=O)c2ccc(-c3nc4c(F)cc5[nH]ncc5c4c4c3CCCC4)cc2)CC1 [Compound 26, (4-(5-fluoro-8,9,10,11-tetrahydro-3H-pyrazolo[4,3-a]phenanthridin-7-yl)phenyl) (4-methylpiperazin-1-yl)methanone] | negatively affected STING binding | – |
| CN1CCN(C(=O)c2ccc(-c3nc4ccc5[nH]ncc5c4c4c3CCCC4)c(F)c2)CC1 [Compound 28, (3-fluoro-4-(8,9,10,11-tetrahydro-3H-pyrazolo[4,3-a]phenanthridin-7-yl)phenyl) (4-methylpiperazin-1-yl)methanone] | generally retained STING binding | – |
| CCn1nc(C)cc1C(=O)Nc1nc2cc(C(N)=O)cc(OC)c2n1C/C=C/Cn1c(NC(=O)c2cc(C)nn2CC)nc2cc(C(N)=O)cc(OCCCN3CCOCC3)c21 [DIABZI-3, reference compound] | high probe displacement | – |
| c1n[nH]cc1-c1nc2ccc3[nH]ncc3c2c2c1CCCC2 [HSD1077, 7-(1H-pyrazol-4-yl)-8,9,10,11-tetrahydro-3H-pyrazolo[4,3-a]phenanthridine] | – | type 1 interferon production on treatment with compound alone (agonism) (RAW ISG Blue cells; 24 hours, no cGAMP): did not induce type 1 interferon production; also recorded: non-significant changes in interferon expression levels; type 1 interferon expression after pre-treatment and cGAMP induction (RAW ISG Blue cells; pre-treatment (1 μM or lower) 2 hours, then 100 μM 2'-3' cGAMP 24 hours): can suppress type-1 interferon expression; also recorded: dose-dependent attenuation in type 1 interferon expression; also recorded: attenuated expression of type 1 interferon in a dose-dependent manner; concentration causing a noticeable decrease in interferon expression (RAW ISG Blue cells; pre-treatment before cGAMP): ≤ 20 nM; murine Interferon-β mRNA levels (RAW ISG Blue macrophages): dose-dependent reduction in murine Interferon-β levels; phospho-IRF3 level (Raw ISG cells): decreased levels; also recorded: attenuates; phospho-STING level (Raw ISG cells): decreased levels; also recorded: attenuates; type 1 interferon expression after pre-treatment and cGAMP stimulation (THP-1 dual cells): can suppress type-1 interferon expression; also recorded: reduced type 1 interferon expression in a dose-dependent manner; also recorded: attenuated expression of interferon in a dose-dependent manner |
| (2-fluoro-4-(8,9,10,11-tetrahydro-3H-pyrazolo[4,3-a]phenanthridin-7-yl)phenyl) (4-methylpiperazin-1-yl)methanone [Compound 27] | negatively affected STING binding | – |
